This passage reports IC50 results from patent US20230219921A1, “KCNT1 INHIBITORS AND METHODS OF USE” (Praxis Precision Medicines, Inc., priority 2020, published 2023).

As usually defined, the IC50 is the concentration at which inhibition is half-maximal.

The target of the assay is T1, KCNT1 (KNa1.1, Slack) (Homo sapiens, UniProt Q5JUK3).
T1 construct: expressed in transfected cells; host or cells: HEK-TREX (tetracycline-inducible HEK cell line)
T1 sequence (Q5JUK3 1-1230): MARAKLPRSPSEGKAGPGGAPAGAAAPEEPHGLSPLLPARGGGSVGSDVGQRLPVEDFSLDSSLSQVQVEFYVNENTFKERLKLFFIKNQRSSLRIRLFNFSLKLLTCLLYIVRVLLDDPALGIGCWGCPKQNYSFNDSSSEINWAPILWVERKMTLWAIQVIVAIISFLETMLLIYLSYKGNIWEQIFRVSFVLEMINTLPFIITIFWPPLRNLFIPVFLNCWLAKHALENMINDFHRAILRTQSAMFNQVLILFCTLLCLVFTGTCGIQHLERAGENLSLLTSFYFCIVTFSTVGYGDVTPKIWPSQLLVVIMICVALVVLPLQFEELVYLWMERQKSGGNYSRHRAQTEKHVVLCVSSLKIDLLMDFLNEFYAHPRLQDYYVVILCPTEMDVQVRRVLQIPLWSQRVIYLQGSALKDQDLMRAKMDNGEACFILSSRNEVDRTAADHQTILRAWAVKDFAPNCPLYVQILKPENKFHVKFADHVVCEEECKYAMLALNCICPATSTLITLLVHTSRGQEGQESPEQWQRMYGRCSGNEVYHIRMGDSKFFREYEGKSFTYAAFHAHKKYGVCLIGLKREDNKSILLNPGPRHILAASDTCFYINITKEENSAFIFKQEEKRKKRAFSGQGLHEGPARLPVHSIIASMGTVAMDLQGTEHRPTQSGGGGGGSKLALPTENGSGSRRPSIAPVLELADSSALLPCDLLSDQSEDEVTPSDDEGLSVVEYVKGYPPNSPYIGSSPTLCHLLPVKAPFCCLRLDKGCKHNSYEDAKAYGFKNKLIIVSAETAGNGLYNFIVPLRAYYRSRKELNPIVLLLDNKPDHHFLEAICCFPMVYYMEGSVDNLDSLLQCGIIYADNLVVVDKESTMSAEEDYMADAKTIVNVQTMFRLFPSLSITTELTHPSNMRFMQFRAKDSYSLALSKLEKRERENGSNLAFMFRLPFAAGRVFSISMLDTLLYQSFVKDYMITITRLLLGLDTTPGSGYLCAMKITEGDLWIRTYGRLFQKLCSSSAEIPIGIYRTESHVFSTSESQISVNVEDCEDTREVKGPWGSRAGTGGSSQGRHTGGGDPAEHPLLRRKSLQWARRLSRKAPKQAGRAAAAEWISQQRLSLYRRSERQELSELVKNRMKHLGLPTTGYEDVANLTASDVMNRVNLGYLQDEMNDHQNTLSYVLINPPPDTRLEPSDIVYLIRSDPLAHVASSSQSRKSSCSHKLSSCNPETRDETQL
Put plainly: KCNT1 patch clamp assay (SyncroPatch 384PE automated patch clamp). The settings on record: tetracycline inducible cell line (HEK-TREX); perforated patch mode; step from -80 mV to 0 mV; room temperature; read-out: KCNT1-WT IC50. The assay is classed as cell-based. As for the experimental part:
Inhibition of KCNT1 (KNa1.1, Slack) was evaluated using a tetracycline inducible cell line (HEK-TREX). Currents were recorded using the SyncroPatch 384PE automated, patch clamp system. Pulse generation and data collection were performed with PatchController384 V1.3.0 and DataController384 V1.2.1 (Nanion Technologies). The access resistance and apparent membrane capacitance were estimated using built-in protocols. Current were recorded in perforated patch mode (10 μM escin) from a population of cells. The cells were lifted, triturated, and resuspended at 800,000 cells/ml. The cells were allowed to recover in the cell hotel prior to experimentation. Currents were recorded at room temperature. The external solution contained the following (in mM): NaCl 105, NMDG 40, KCl 4, MgCl2 1, CaCl2 5 and HEPES 10 (pH=7.4, Osmolarity ˜300 mOsm). The extracellular solution was used as the wash, reference and compound delivery solution. The internal solution contained the following (in mM): NaCl 70, KF 70, KCl 10, EGTA 5, HEPES 5 and Escin 0.01 (pH=7.2, Osmolarity ˜295 mOsm). Escin is made at a 5 mM stock in water, aliquoted, and stored at −20° C. The compound plate was created at 2× concentrated in the extracellular solution. The compound was diluted to 1:2 when added to the recording well. The amount of DMSO in the extracellular solution was held constant at the level used for the highest tested concentration. A holding potential of −80 mV with a 100 ms step to 0 mV was used. Mean current was measured during the step to 0 mV. […] The average mean current from 3 sweeps was calculated and the % inhibition of each compound was calculated. The % Inhibition as a function of the compound concentration was fit with a Hill equation to derive IC50, slope, min and max parameters. If KCNT1 inhibition was less than 50% at the highest tested concentration or if an IC50 could not be calculated, then a percent inhibition was reported in place of the IC50.
In this table, “A” indicates IC50 of less than or equal to 1 μM; “B” indicates inhibition of between 1 μM to 20 μM; and “C” indicates inhibition of greater than or equal to 20 μM.
A general note: The patch-clamp technique gives a direct electrical read-out from membranes.

The structures appear in SMILES notation.

Regarding `CNS(=O)(=O)c1ccc(C(=O)N[C@H](C)c2ccc(Cl)cc2Cl)s1` [Compound 1, (R)—N-(1-(2,4-dichlorophenyl)ethyl)-5-(N-methylsulfamoyl)thiophene-2-carboxamide], the IC50 lay in the range of 1000 to 20000 nM.
Regarding `CNS(=O)(=O)c1ccc(C(=O)N[C@@H](C)c2ccc(Cl)cc2Cl)s1` [Compound 2, (S)—N-(1-(2,4-dichlorophenyl)ethyl)-5-(N-methylsulfamoyl)thiophene-2-carboxamide], the IC50 was not above 1000 nM.
Regarding `CNS(=O)(=O)c1ccc(C(=O)NCc2ccc(Cl)cc2Cl)s1` [Compound 3, N-(2,4-dichlorobenzyl)-5-(N-methylsulfamoyl)thiophene-2-carboxamide], the concentration for half-maximal inhibition (IC50) is not above 1000 nM.
On to `CNS(=O)(=O)c1ccc(C(=O)N[C@H](C)c2ccc(Cl)cc2)s1` [Compound 4, (R)—N-(1-(4-chlorophenyl)ethyl)-5-(N-methylsulfamoyl)thiophene-2-carboxamide], for which the IC50 is not above 1000 nM.
For the molecule `CNS(=O)(=O)c1ccc(C(=O)N[C@@H](C)c2ccc(Cl)cc2)s1` [Compound 5, (S)—N-(1-(4-chlorophenyl)ethyl)-5-(N-methylsulfamoyl)thiophene-2-carboxamide], the concentration for half-maximal inhibition (IC50) is not above 1000 nM.
For the molecule `CS(=O)(=O)c1ccc(C(=O)NCc2ccc(Cl)cc2Cl)s1` [Compound 6, N-(2,4-dichlorobenzyl)-5-(methylsulfonyl)thiophene-2-carboxamide], the IC50 was not above 1000 nM.
The result for `CNS(=O)(=O)c1ccc(C(=O)NCc2ccc(Cl)cc2)s1` [Compound 7, N-(4-chlorobenzyl)-5-(N-methylsulfamoyl)thiophene-2-carboxamide] reads not above 1000 nM; that for `CNS(=O)(=O)c1ccc(C(=O)NCc2ccc(Cl)cc2C(F)(F)F)s1` [Compound 8, N-(4-chloro-2-(trifluoromethyl)benzyl)-5-(N-methylsulfamoyl)thiophene-2-carboxamide], not above 1000 nM.
The same measure for `CNS(=O)(=O)c1ccc(C(=O)NCc2ccc(Cl)cc2C)s1` [Compound 9, N-(4-chloro-2-methylbenzyl)-5-(N-methylsulfamoyl)thiophene-2-carboxamide]: not above 1000 nM; for `CNS(=O)(=O)c1ccc(C(=O)NCc2ccc(Cl)cc2F)s1` [Compound 10, N-(4-chloro-2-fluorobenzyl)-5-(N-methylsulfamoyl)thiophene-2-carboxamide]: not above 1000 nM; for `CNS(=O)(=O)c1ccc(C(=O)NCc2ccc(Cl)cc2Br)s1` [Compound 11, N-(2-bromo-4-chlorobenzyl)-5-(N-methylsulfamoyl)thiophene-2-carboxamide]: not above 1000 nM.
Consider `CNS(=O)(=O)c1ccc(C(=O)NCc2ccc(Cl)cc2C2CC2)s1` [Compound 12, N-(4-chloro-2-cyclopropylbenzyl)-5-(N-methylsulfamoyl)thiophene-2-carboxamide], for which the half-maximal inhibitory concentration (IC50) was not above 1000 nM.
Consider `CNS(=O)(=O)c1ccc(C(=O)NCc2ccc(Cl)cc2OC)s1` [Compound 13, N-(4-chloro-2-methoxybenzyl)-5-(N-methylsulfamoyl)thiophene-2-carboxamide], for which the half-maximal inhibitory concentration (IC50) is not above 1000 nM.
In the case of `CNS(=O)(=O)c1ccc(C(=O)NCc2ccc(Cl)cc2O)s1` [Compound 14, N-(4-chloro-2-hydroxybenzyl)-5-(N-methylsulfamoyl)thiophene-2-carboxamide], the IC50 is not above 1000 nM.
In the case of `O=C(NCc1ccc(Cl)cc1Cl)c1ccc(S(=O)(=O)C2CC2)s1` [Compound 15, 5-(Cyclopropylsulfonyl)-N-(2,4-dichlorobenzyl)thiophene-2-carboxamide], the IC50 is not above 1000 nM.
Take `CCS(=O)(=O)c1ccc(C(=O)NCc2ccc(Cl)cc2Cl)s1` [Compound 16, N-(2,4-dichlorobenzyl)-5-(ethylsulfonyl)thiophene-2-carboxamide]: the half-inhibitory concentration (IC50) is not above 1000 nM.
The result for `CNS(=O)(=O)c1ccc(C(=O)NCc2ccc(C#N)cc2)s1` [Compound 17, N-(4-cyanobenzyl)-5-(N-methylsulfamoyl)thiophene-2-carboxamide] reads 1000 to 20000 nM; that for `CNS(=O)(=O)c1ccc(C(=O)NCc2cccc(Cl)c2)s1` [Compound 18, N-(3-chlorobenzyl)-5-(N-methylsulfamoyl)thiophene-2-carboxamide], not above 1000 nM; that for `CNS(=O)(=O)c1ccc(C(=O)NCc2ccc(C(C)C)cc2)s1` [Compound 19, N-(4-isopropylbenzyl)-5-(N-methylsulfamoyl)thiophene-2-carboxamide], not above 1000 nM.
Regarding `CNS(=O)(=O)c1ccc(C(=O)NCc2ccc(Cl)c(F)c2)s1` [Compound 20, N-(4-chloro-3-fluorobenzyl)-5-(N-methylsulfamoyl)thiophene-2-carboxamide], the IC50 was not above 1000 nM.
The result for `CNS(=O)(=O)c1ccc(C(=O)NCc2ccc(Br)cc2)s1` [Compound 21, N-(4-bromobenzyl)-5-(N-methylsulfamoyl)thiophene-2-carboxamide] reads not above 1000 nM; that for `CNS(=O)(=O)c1ccc(C(=O)NCc2ccc(C)cc2)s1` [Compound 22, N-(4-methylbenzyl)-5-(N-methylsulfamoyl)thiophene-2-carboxamide], not above 1000 nM; that for `CS(=O)(=O)c1ccc(C(=O)NCc2ccc(N3CCCC3)cc2)s1` [Compound 23, 5-(methylsulfonyl)-N-(4-(pyrrolidin-1-yl)benzyl)thiophene-2-carboxamide], not below 20000 nM.
Take `CC(C)c1ccc(CNC(=O)c2ccc(S(C)(=O)=O)s2)cc1` [Compound 24, N-(4-isopropylbenzyl)-5-(methylsulfonyl)thiophene-2-carboxamide]: the IC50 is not above 1000 nM.
As for `CC(C)Oc1ccc(CNC(=O)c2ccc(S(C)(=O)=O)s2)cc1` [Compound 25, N-(4-isopropoxybenzyl)-5-(methylsulfonyl)thiophene-2-carboxamide], the 50% inhibitory concentration (IC50) is not below 20000 nM.
The result for `CNS(=O)(=O)c1ccc(C(=O)NCc2ccc(C3CC3)cc2)s1` [Compound 26, N-(4-cyclopropylbenzyl)-5-(N-methylsulfamoyl)thiophene-2-carboxamide] reads not above 1000 nM; that for `CNS(=O)(=O)c1ccc(C(=O)NCc2ccc(OC(C)C)cc2)s1` [Compound 27, N-(4-isopropoxybenzyl)-5-(N-methylsulfamoyl)thiophene-2-carboxamide], not below 20000 nM.
On to `CNS(=O)(=O)c1ccc(C(=O)NCc2ccc(C(C)(C)C)cc2)s1` [Compound 28, N-(4-(tert-butyl)benzyl)-5-(N-methylsulfamoyl)thiophene-2-carboxamide], for which the 50% inhibitory concentration (IC50) was not above 1000 nM.
Regarding `CNS(=O)(=O)c1ccc(C(=O)NCc2ccc(C(F)(F)F)cc2)s1` [Compound 29, 5-(N-methylsulfamoyl)-N-(4-(trifluoromethyl)benzyl)thiophene-2-carboxamide], the IC50 is not above 1000 nM.
